Results published in EP2657347A1, “Electrochemical competitive assay and use thereof” (Université Paris Diderot - Paris 7, priority 2012, dated 2013).
Like-named read-outs stand apart in the source and are kept apart here.

Target: D-Apt49
Assay: Homogeneous electrochemical competitive binding assay in 20% fetal bovine serum
Experimental: • Figure 1: Electrochemically competitive assay of the invention. Left-hand column: before the addition of the sample: a first redox signal is measured. Right-hand column: after the addition of a sample containing the target to be detected or measured: a second redox signal is measured. (A) Homogeneous electrochemically competitive assay: the presence of the target disrupts the complex formed between the oligonucleotide ligand and the redox-labeled target. […] (B) Heterologous electrochemically competitive assay, wherein the oligonucleotide ligand is attached to a solid phase: the presence of the target disrupts the complex formed between the oligonucleotide ligand and the redox-labeled target, thereby inducing a better detection of the redox labeled-target. […] (C) Heterologous electrochemically competitive assay, wherein the oligonucleotide ligand is attached to the electrode: the presence of the target disrupts the complex formed between the oligonucleotide ligand and the redox-labeled target, thereby reducing the detection of the redox labeled-target. […] (f) CV of 1 µM [Os(bpy)3]^2+ alone. […] Error bars: standard deviations from 3 measurements. Plain lines: fits of eq 5 to the experimental data. • Figure 3: (A) CVs (v = 0.05 V s^-1) of 5 mM Tris buffer (pH 7.0) containing 50 mM NaCl, 10 mM Mg^2+, 5 µM Fc-L-Tym and (a) 0 µM, (b) 1 µM, (c) 2 µM, (d) 3 µM, (e) 4 µM (f) 5 µM (g) 7.5 µM (h) 10 µM (i) 12.5 µM and (j) 15 µM of D-Apt49. (B) Normalized anodic peak current response as a function of aptamer concentration. Each data is the average of 3 measurements. Error bars are standard deviations. Plain line: fit of eq 5 to the experimental data. • Figure 4: Competitive binding curves performed in (A) 5 mM Tris buffer (pH 7 + 50 mM NaCl + 10 mM MgCl2) or (B) 20% fetal bovine serum (simply diluted with a 4 mM MgCl2 aqueous solution) as a function of (●, ★, ▼, Δ) L-Tym or (○) D-Tym concentration. (*) Assay of 5 µM L-Tym in the presence of 5 mM D-Tym. The Fc-L-Tym concentration was always C^0T*= 5 µM, whereas the D-Apt49 concentrations were C^0R: (●) 3, (★,○,*) 10, (▼) 40 and (Δ) 100 µM.
The enantiospecificity of the assay was next characterized using the same methodology but for solutions containing the D-Tym enantiomer. […] To evaluate the enantiospecific performance of the aptamer, the assay of trace amount of L-Tym in the presence of a large excess of D-Tym was examined and, as reported in Figure 4A, it has been found possible to detect as low as 5 µM L-Tym in the presence of 5 mM D-Tym. This remarkable performance means that as low as 0.1 % of an enantiomeric impurity in a nonracemic mixture can be assayed in a very short analysis time (<1 min). This is competitive with conventional separation techniques, and one order of magnitude lower than the 1% currently attainable by NMR. Finally, the ability to perform an assay under realistic biological conditions was examined. For such purpose, homogenous electrochemical competitive binding assays of 5-fold diluted fetal bovin serum samples spiked with known amounts of […] were then performed (Figure 4B).

Kd (5-fold diluted fetal bovine serum, average of the fitted curves, read-out: Kd (average value)): 10 µM
Kd (20% fetal bovine serum, 5 µM Fc-L-Tym, 40 µM D-Apt49, read-out: Kd): 9 µM
Kd (20% fetal bovine serum, 5 µM Fc-L-Tym, 100 µM D-Apt49, read-out: Kd): 11 µM
Compound: NC(=O)[C@@H](N)Cc1ccc(O)cc1 [L-Tym, L-tyrosinamide]
